Measured values from ChEMBL document CHEMBL5727654 (2020).
pIC50: −log10 of the molar value.

Biological target: T1, Signal transducer and activator of transcription 1-alpha/beta (Homo sapiens, UniProt P42224)
T1 sequence (P42224 whole entry): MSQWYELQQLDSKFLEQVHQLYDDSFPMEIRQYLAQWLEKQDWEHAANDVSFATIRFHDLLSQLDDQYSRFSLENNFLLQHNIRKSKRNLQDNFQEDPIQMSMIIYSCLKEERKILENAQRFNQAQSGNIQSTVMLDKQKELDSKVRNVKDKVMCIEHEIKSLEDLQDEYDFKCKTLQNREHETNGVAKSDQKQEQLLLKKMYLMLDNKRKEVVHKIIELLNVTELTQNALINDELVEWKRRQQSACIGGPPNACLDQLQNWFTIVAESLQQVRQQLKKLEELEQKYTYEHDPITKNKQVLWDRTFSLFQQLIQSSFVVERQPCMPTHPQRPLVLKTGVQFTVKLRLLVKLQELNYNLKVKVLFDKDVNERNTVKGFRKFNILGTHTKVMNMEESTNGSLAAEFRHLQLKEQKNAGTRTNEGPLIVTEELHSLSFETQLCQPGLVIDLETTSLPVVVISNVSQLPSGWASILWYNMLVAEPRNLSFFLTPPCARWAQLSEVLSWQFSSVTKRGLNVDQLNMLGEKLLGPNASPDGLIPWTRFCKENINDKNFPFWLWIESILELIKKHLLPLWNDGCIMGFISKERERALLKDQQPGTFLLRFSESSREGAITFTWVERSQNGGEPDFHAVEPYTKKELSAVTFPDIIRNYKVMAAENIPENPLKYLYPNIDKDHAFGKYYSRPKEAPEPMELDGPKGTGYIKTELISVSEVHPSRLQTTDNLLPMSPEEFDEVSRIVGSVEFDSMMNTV
Experiment: Bioassay Evaluation: Compound samples (in 3-5 mg quantities) were evaluated in a variety of assays. All compound submissions were fully characterized (1H, 13C, IR, HRMS), satisfied purity criteria (≥95% LC/MC, ELS).
Format: single protein

SMILES: COc1ccc(C2=Nn3c(nnc3-c3[nH]nc4c3CCC4)SC2)cc1
- pIC50: 4.39
